Experiment [1] addresses human IDO1 protease (Homo sapiens (Human), UniProt P14902). Nature of the experiment: Inhibitory activity against human IDO1 protease (absorbance test method). The experiment is classed as biochemical. The settings on record: IDO1 (His-tag) enzyme, absorbance at 320 nm. The method, then: IDO1 (His-tag) enzyme(BPS Bioscience), L-tryptophan (Sigma), methylene blue (Sigma), Catalase originated from the liver of cattle (Sigma), L-ascorbic acid (Sigma), glycerol (Sigma), potassium dihydrogen phosphate solution (Sigma), Tween 20 (Sigma), automatic sampling platformLiquid handler (Bravo & Echo), microplate ReaderSpectraMax M5e (Molecular Devices).
2) Test Method of Compounds: The Compounds are Determined by Absorbance Test Method:
The tested compounds are dissolved in DMSO to prepare a high concentration of storage solution. The stock solution of reference compound was diluted with DMSO to prepare a 100× solution. In the first column of the working plate, 8 μL above tested compounds and 8 μL 100× reference compound were respectively added as the highest concentration, and then the highest concentrations were subjected to three times dilution to obtain 11 concentrations and prepare 100× solution. 0.5 μL solution was transferred from the above plate to the detection plate. To each well was added 0.5 μL 100× compound solution. For HPE and ZPE control wells, 0.5 μL 100% DMSO was added. 25 μL 2×IDO1 (His-tag) enzyme solution (containing L-ascorbic acid, methylene blue, and catalase) was added to each well. 25 μL reaction solution without IDO1 (His-tag) enzyme was added into HPE control well. The test plate was centrifugated at 1000 rpm for 1 minute to mix well. Then, the test plate was incubated at room temperature for 30 minutes. 25 μL above 2× substrate (L-tryptophan) solution was added to each well. The test plate was centrifugated at 1000 rpm for 1 minute to mix well. The detection plate was placed on ELISA (SpectraMax M5e), the temperature was set at 25° C., and the absorbance (OD value) was measured at 320 nm every 10 minutes till 60 minutes.
Calculating the increase ratio of absorbance: the slope of the absorbance increase curve from 10 min to 60 min is derived from SpectralMax M5e. The inhibition coefficient of compound was calculated: the inhibition ratio of compound=(the absorbance increase ratio of ZPE control well−the absorbance increase ratio of compound well)/(the absorbance increase ratio of ZPE control well−the absorbance increase ratio of HPE control well)×100. Results was analyzed by Prism 5.0.

The target of experiment [2] is IDO1 protease activity in Hela cells (Homo sapiens (Human), UniProt P14902). As to the kind of experiment: Inhibition of IDO protease in HeLa cells (IDO/kynurenine experiment, IFN-γ induced). The experiment is classed as cell-based. The settings on record: 10 ng/mL IFN-γ, 48 h, OD480 nm, read-out: IC50, inhibitory activity against IDO1 protease activity in Hela cells. The method, then: 2) Experimental Method for Compound Assay 2.1 Seeding HeLa Cells into 96 Well Plate
The medium was taken out from the flask and the cells were washed with PBS. TrypLE solution was added to the flask to make the cells separate. The cells were further washed once with fresh medium containing 10% FBS, and then re-suspended in the medium until the final concentration was 2.3×10^6/mL. Only cells with activity greater than 90% can be used for detection. HeLa cells were planted into 100 μL suitable growth median 96 well plate at 3000 cells/well. The cells were incubated at 37° C. under 5% CO2 overnight.
The compound was diluted to the concentration of 10 mM with DMSO, that was then continuously diluted 3 times to get 9 concentrations. 5 μL compound was added into 45 μL media as the median dilution (10 times dilution, containing 10% DMSO). 96 μL fresh growth media were added to each well to reach the total volume of 196 μL. 2 μL compound solution was taken from the mid-diluted solution and added to the cells in the wells of the assay plate, and then incubated in a 5% CO2 incubator at 37° C. for 30 minutes. 2 μL human IFN-γ solution was added to reach a total volume of 200 μL, with the final concentration of 10 ng/mL, and the final concentration is 0.1%. The cells were incubated in 5% CO2 incubator at 37° C. for 48 h.
After incubating for another 48 hours in a 5% CO2 incubator at 37° C., 140 μL supernatant was added to each well and transferred to a new 96-well plate. 10 μL of 6.1N CCl3COOH was further added to each well, and incubated at 50° C. for 30 min after sealing. The plate was then centrifuged at 2500 rpm for 10 minutes. 100 μL supernatant in each well was transferred to another 96-well assay plate and mixed with 100 μL of 6% (w/v) p-dimethylaminobenzaldehyde. EnSpire was used to read the plate at OD480 nm.
The average data of HC (high control: 10 ng/mL IFN-γ) and LC (low control: no IFN-γ) were calculated for each screening plate. Percent inhibition of compound well (% inh)=100*(aveHC−cpd well)/(aveHC−ave LC). Finally, GraphPad Prism 6 software was used to calculate the IC50 values of compounds and draw the effect-concentration curve.

Sequence of human IDO1 protease (P14902 whole entry): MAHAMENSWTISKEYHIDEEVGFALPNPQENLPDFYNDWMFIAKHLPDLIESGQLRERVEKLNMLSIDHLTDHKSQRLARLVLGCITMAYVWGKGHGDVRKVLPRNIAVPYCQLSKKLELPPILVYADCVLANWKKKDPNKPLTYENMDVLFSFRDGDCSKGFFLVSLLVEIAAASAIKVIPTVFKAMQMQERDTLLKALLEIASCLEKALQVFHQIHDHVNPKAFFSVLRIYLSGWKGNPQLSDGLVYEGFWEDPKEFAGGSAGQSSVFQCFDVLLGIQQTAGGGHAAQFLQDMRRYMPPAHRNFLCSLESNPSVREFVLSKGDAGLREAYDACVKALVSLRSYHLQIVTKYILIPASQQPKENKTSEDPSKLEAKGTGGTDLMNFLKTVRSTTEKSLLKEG
Sequence of IDO1 protease activity in Hela cells (P14902 whole entry): as above

Usually IC50 stands for the midpoint of a concentration-inhibition curve. `CNS(=O)(=O)CCNc1nonc1C(=NO)Nc1ccc(F)c(Br)c1` [Example 2, N-(3-bromo-4-fluorophenyl)-N′-hydroxyl-4-((2-(N-methylsulfamoyl)ethyl)amino)-1,2,5-oxadiazol-3-formamidine]: the IC50 in experiment [1] is 54 nM; in experiment [2] it was 19 nM.
The like results for `CCNS(=O)(=O)CCNc1nonc1C(=NO)Nc1ccc(F)c(Br)c1` [Example 3, N-(3-bromo-4-fluorophenyl)-N′-hydroxyl-4-((2-(N-ethylsulfamoyl)ethyl)amino)-1,2,5-oxadiazol-3-formamidine] were, in that order, 74 nM and 35 nM.
Turning to `CC(C)NS(=O)(=O)CCNc1nonc1C(=NO)Nc1ccc(F)c(Br)c1` [Example 4, N-(3-bromo-4-fluorophenyl)-N′-hydroxyl-4-((2-(isopropylsulfamoyl)ethyl)amino)-1,2,5-oxadiazol-3-formamidine], half-maximal inhibition in experiment [1] (IC50) required 185 nM.
Take `O=S(=O)(CCNc1nonc1C(=NO)Nc1ccc(F)c(Br)c1)NCCO` [Example 5, N-(3-bromo-4-fluorophenyl)-N′-hydroxyl-4-((2-(N-(2-hydroxylethyl)sulfamoyl)ethyl)amino)-1,2,5-oxadiazol-3-formamidine]: the figures for the IC50 in experiment [1] and in experiment [2] were 49 nM and 15 nM, respectively.
Take `O=S(=O)(CCNc1nonc1/C(=N/O)Nc1ccc(F)c(Br)c1)NCC(F)F` [Example 6]: the IC50 in experiment [1] turned out to be 87 nM; in experiment [1] (listed as 11), 44 nM.
For the compound `CN(C)S(=O)(=O)CCNc1nonc1/C(=N/O)Nc1ccc(F)c(Br)c1` [Example 7, N-(3-bromo-4-fluorophenyl)-N′-hydroxyl-4-((2-N,N-dimethylsulfamoylethyl)amino)-1,2,5-oxadiazol-3-formamidine], in experiment [1], half-maximal inhibition (IC50) was put at 115 nM.
With `CC(C)NS(=O)(=O)CCCNc1nonc1/C(=N/O)Nc1ccc(F)c(Br)c1` [Example 13, N-(3-bromo-4-fluorophenyl)-N′-hydroxyl-4-((3-(N-isopropylsulfamoyl)propyl)amino)-1,2,5-oxadiazol-3-formamidine], the IC50 is 63 nM in experiment [1] and 30 nM in experiment [2].
In the case of `O=S(=O)(CCCNc1nonc1C(=NO)Nc1ccc(F)c(Br)c1)NC1CC1` [Example 14, N-(3-bromo-4-fluorophenyl)-N′-hydroxyl-4-((3-(N-cyclopropylsulfamoyl)propyl)amino)-1,2,5-oxadiazol-3-formamidine], the IC50 in experiment [1] turned out to be 99 nM; in experiment [2], 37 nM.
`O=S(=O)(CCCNc1nonc1C(=NO)Nc1ccc(F)c(Br)c1)NCCO` [Example 16, N-(3-bromo-4-fluorophenyl)-N′-hydroxyl-4-((3-(N-(2-hydroxylethyl)sulfamoyl)propyl)amino)-1,2,5-oxadiazol-3-formamidine]: the half-maximal inhibitory concentration (IC50) in experiment [1] was determined as 51 nM; in experiment [2], 32 nM.
Take `CCNS(=O)(=O)CCCNc1nonc1C(=NO)Nc1ccc(F)c(Br)c1` [Example 17, N-(3-bromo-4-fluorophenyl)-N′-hydroxyl-4-((3-(N-ethylsulfamoyl)propyl)amino)-1,2,5-oxadiazol-3-formamidine]: the IC50 in experiment [2] was determined as 10 nM.
The compound `CONS(=O)(=O)CCCNc1nonc1C(=NO)Nc1ccc(F)c(Br)c1` [Example 20, N-(3-bromo-4-fluorophenyl)-N′-hydroxyl-4-((3-(N-methoxylsulfamoyl)propyl)amino)-1,2,5-oxadiazol-3-formamidine] came in with an IC50 in experiment [1] of 99 nM.
Compound `O=S(=O)(CCCNc1nonc1C(=NO)Nc1ccc(F)c(Br)c1)NO` [Example 21, N-(3-bromo-4-fluorophenyl)-N′-hydroxyl-4-((3-(N-hydroxylsulfamoyl)propyl)amino)-1,2,5-oxadiazol-3-formamidine] registered an IC50 in experiment [1] of 99 nM.
Regarding `O=S(=O)(CCCCNc1nonc1/C(=N/O)Nc1ccc(F)c(Br)c1)N1CCC1` [Example 25, 4-((4-(azetidin-1-ylsulfonyl)butyl)amino)-N-(3-bromo-4-fluorophenyl)-N′-hydroxyl-1,2,5-diazol-3-formamidine], the IC50 in experiment [2] worked out at 93 nM.
As for `O=S(=O)(CCCCNc1nonc1/C(=N/O)Nc1ccc(F)c(Br)c1)N1CC(F)C1` [Example 26, N-(3-bromo-4-fluorophenyl)-4-((4-((3-fluorazetidin-1-yl)sulfonyl)butyl)amino)-N′-hydroxyl-1,2,5-oxadiazol-3-amide], the IC50 in experiment [2] came to 113 nM.
Consider `[2H]C([2H])([2H])N(C([2H])([2H])[2H])S(=O)(=O)CCCNc1nonc1/C(=N/O)Nc1ccc(F)c(Br)c1` [Example 28], for which the IC50 in experiment [1] came to 106 nM; in experiment [2] it was 16 nM.
As to `[2H]C([2H])([2H])NS(=O)(=O)CCCCNc1nonc1/C(=N/O)Nc1ccc(F)c(Br)c1` [Example 29, N-(3-bromo-4-fluorophenyl)-N′-hydroxyl-4-((4-(N-deuteratedmethylsulfamoyl)butyl)amino)-1,2,5-oxadiazol-3-formamidine], in experiment [2], the IC50 is 20 nM.
With `[2H]C([2H])([2H])N(C([2H])([2H])[2H])S(=O)(=O)CCCCNc1nonc1/C(=N/O)Nc1ccc(F)c(Br)c1` [Example 30], the IC50 in experiment [2] came out at 24 nM.
For the compound `NS(=O)(=O)CCOCCNc1nonc1/C(=N/O)Nc1ccc(F)c(Br)c1` [Example 31, N-(3-bromo-4-fluorophenyl)-N′-hydroxyl-4-(2-(2-aminosulfonylethoxyl)-ethylamine)-1,2,5-diazol-3-formamidine], the IC50 in experiment [2] worked out at 68 nM.
As for `[2H]C([2H])([2H])NS(=O)(=O)CCCSc1nonc1/C(=N/O)Nc1ccc(F)c(Br)c1` [Example 32], in experiment [2], the IC50 is 17 nM.
For the compound `[2H]C([2H])([2H])NS(=O)(=O)CCCSc1nonc1/C(=N/O)Nc1cccc(Br)c1F` [Example 33, N-(3-bromo-2-fluorophenyl)-N′-hydroxyl-4-((3-(N-trideuteratedmethylsulfamoyl)propyl)sulfur)-1,2,5-oxadiazol-3-formamidine], the IC50 in experiment [2] stood at 69 nM.
With “N-(3-bromo-4-fluorophenyl)-N′-hydroxyl-4-((2-(morpholinylsulfamoyl)ethyl)amino)-1,2,5-oxadiazol-3-formamidine [Example 9]”, in experiment [1], the IC50 came to 162 nM.

These data come from US11591301B2, “Indoleamine-2,3-dioxygenase inhibitor, preparation method therefor and use thereof” (HINOVA PHARMACEUTICALS INC., priority 2018, dated 2023).
